Measurements from patent publication EP0069521A2, “Pyridinyl and imidazolyl derivatives of benzofurans and benzothiophenes” (THE UPJOHN COMPANY, priority 1981, dated 1983).

Molecular target: T1, TXA2 synthetase (Homo sapiens, UniProt P24557)
T1 construct: generated by mixing prostaglandin H2 (PGHz) with human platelet microsomes (HPM); from tissue; host or cells: human platelet microsomes
T1 sequence (P24557 1-533): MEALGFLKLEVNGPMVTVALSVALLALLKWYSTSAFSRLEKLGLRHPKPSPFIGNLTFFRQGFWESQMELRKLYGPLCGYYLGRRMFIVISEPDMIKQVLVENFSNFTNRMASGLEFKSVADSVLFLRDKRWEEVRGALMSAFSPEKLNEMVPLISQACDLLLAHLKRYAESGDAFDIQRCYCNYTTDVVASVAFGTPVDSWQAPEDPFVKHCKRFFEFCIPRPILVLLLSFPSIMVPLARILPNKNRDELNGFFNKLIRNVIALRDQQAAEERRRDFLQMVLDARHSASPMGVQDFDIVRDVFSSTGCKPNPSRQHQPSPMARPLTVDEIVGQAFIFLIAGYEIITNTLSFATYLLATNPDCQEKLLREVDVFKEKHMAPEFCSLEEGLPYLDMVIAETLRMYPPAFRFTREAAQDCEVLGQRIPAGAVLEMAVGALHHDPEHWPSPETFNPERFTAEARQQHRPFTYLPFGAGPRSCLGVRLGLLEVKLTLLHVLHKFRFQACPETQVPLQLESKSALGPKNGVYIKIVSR
Assay: TXA2 inhibition test: TXA2 generated by mixing PGH2 with human platelet microsomes, response of superfused rabbit aortic strips
Assay type: biochemical
Conditions: inhibiting TXA2 formation; test compound added to human platelet microsomes 5 minutes before mixing with PGH2; rabbit aorta response
Protocol: The compounds of the present invention were tested for TXA2 inhibition as follows: • Rabbit aortic strips were superfused in series with Krebs solution. Thromboxane Az (TXA2) was generated by mixing prostaglandin H2 (PGHz) with human platelet microsomes (HPM).
Potential inhibitors were tested by comparing the response of the rabbit aorta to the amount of TXA2 produced by mixing PGH2 and HPM without the test compound in the reaction medium and then the amount of TXA2 produced when the test compound was added to the HPM 5 minutes before the HPM was mixed with PGH2. […] For a discussion of TXA2 synthetase inhibition testing see, e.g., R. Gorman, supra.

## O=C([O-])c1cc2cc(Cc3cccnc3)ccc2o1.[Na+] [Example A-2, Sodium 5-(3'-pyridinylmethyl)benzofuran-2-carboxylate]
  approximate ED50: ~0.01 µg/mL
